# pIC50: −log10 of the molar value.
# Experiments:
# Progesterone receptor = target: T1, Progesterone receptor (Homo sapiens, UniProt P06401); assay: Displacement of [[3H]-Progesterone from progesterone receptor (unknown origin) expressed in 293 cells after 16 hrs by scintillation counting; format: cell-based
# T1 sequence (P06401 whole entry): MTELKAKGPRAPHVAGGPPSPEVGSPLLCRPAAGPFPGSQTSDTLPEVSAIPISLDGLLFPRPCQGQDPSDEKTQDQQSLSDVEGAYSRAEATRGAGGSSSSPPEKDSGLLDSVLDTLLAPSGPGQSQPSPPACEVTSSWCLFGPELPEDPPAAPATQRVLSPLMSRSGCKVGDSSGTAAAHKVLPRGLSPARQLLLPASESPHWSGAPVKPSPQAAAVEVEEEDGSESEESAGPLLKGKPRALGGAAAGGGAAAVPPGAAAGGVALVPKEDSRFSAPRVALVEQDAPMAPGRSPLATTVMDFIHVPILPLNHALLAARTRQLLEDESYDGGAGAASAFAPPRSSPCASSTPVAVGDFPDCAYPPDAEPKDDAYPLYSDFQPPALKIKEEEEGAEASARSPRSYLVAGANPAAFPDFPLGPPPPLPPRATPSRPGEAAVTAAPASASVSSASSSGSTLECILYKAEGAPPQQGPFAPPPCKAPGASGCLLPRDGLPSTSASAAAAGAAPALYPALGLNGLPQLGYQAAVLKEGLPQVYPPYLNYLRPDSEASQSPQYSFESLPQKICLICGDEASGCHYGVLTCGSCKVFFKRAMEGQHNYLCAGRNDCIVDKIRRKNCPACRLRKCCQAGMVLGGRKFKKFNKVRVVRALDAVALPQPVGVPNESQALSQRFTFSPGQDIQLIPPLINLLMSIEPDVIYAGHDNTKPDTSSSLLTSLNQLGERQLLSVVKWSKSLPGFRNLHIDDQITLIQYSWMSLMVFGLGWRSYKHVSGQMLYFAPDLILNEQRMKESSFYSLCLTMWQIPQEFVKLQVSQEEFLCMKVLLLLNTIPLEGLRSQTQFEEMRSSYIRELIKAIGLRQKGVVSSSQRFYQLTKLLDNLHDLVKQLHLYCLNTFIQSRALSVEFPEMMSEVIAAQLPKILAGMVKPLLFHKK
# Androgen receptor = target: T2, Androgen receptor (Homo sapiens, UniProt P10275); assay: biochemical
# T2 sequence (P10275 whole entry): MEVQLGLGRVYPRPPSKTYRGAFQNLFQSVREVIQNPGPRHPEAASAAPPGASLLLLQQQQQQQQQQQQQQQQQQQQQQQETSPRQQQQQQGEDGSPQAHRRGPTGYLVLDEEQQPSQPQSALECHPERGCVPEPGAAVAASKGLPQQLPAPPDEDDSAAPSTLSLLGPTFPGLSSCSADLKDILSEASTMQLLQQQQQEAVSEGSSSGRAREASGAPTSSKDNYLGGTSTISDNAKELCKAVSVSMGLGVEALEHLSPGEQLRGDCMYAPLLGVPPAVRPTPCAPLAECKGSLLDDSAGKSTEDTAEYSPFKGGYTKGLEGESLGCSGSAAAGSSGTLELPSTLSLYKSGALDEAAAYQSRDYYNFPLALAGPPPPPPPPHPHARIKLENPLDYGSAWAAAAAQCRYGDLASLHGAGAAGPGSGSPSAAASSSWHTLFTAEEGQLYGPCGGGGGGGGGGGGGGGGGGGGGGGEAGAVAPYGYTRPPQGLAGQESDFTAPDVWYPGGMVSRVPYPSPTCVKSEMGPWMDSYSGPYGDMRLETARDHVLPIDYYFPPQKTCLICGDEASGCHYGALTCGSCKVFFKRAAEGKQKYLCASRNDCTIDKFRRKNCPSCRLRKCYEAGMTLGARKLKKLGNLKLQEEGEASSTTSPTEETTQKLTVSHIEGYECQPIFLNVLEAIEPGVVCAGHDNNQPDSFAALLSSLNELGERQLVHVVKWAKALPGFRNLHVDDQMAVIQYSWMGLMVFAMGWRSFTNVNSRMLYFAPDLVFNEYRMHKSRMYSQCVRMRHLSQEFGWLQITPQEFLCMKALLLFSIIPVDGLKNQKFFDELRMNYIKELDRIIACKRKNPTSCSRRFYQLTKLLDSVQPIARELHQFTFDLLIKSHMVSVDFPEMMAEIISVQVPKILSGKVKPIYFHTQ
# Description: Displacement of [3H]testosterone from androgen receptor (unknown origin) expressed in 293 cells after 16 hrs by scintillation counting
# [1] = target: T3, Mineralocorticoid receptor (Homo sapiens, UniProt P08235); assay: biochemical
# T3 sequence (P08235 whole entry): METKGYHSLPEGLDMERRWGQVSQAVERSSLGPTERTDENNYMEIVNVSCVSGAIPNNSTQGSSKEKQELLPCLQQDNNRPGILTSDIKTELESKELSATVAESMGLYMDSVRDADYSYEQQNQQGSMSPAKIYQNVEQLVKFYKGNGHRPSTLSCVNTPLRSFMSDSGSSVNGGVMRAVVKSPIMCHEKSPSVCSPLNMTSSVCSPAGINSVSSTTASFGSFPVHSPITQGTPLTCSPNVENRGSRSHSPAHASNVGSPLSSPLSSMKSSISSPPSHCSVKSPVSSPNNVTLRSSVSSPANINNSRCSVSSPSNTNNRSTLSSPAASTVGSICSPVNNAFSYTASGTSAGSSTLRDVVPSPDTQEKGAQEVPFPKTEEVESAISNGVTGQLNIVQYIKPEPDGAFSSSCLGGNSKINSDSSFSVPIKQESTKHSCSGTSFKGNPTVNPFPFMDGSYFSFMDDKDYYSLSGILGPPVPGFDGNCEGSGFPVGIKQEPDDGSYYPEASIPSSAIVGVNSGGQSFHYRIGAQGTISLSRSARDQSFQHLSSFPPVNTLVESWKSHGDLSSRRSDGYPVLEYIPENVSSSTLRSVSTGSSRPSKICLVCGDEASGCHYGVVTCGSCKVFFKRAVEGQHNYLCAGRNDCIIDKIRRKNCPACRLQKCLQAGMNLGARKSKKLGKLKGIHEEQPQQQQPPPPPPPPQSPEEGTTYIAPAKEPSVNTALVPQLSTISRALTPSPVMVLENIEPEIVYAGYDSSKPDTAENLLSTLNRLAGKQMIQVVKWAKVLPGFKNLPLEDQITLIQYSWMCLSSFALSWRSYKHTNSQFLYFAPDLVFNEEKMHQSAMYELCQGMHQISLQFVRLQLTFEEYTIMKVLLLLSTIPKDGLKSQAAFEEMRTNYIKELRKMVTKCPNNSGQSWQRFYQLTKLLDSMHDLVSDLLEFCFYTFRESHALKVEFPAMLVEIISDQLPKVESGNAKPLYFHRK
# Description: Displacement of [3H]aldosterone from human mineralocorticoid receptor expressed in 293 cells after 16 hrs by scintillation counting
# Glucocorticoid receptor = Glucocorticoid receptor (Homo sapiens, UniProt P04150); assay: biochemical
# Glucocorticoid receptor, sequence (P04150 whole entry, looked up): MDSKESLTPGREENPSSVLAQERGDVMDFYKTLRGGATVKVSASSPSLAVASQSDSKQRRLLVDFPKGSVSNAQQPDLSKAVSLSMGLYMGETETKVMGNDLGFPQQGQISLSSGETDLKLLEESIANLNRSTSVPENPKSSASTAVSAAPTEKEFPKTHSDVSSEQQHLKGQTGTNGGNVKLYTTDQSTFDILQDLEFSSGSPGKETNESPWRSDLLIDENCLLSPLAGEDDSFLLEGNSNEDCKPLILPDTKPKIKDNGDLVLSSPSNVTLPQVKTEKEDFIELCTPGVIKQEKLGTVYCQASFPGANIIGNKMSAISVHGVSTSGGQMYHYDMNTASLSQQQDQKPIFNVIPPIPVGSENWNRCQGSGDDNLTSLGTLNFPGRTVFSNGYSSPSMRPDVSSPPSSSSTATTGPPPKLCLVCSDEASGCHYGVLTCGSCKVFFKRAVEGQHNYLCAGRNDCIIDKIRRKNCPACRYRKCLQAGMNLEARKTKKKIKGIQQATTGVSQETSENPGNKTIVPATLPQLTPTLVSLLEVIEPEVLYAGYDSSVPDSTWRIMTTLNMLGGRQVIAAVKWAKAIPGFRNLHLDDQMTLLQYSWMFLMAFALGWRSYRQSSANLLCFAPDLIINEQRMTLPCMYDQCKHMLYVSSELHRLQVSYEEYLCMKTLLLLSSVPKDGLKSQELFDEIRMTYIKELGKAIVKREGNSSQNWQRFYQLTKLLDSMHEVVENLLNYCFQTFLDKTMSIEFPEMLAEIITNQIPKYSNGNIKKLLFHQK
# Description: Displacement of [3H]-Dexamethasone from glucocorticoid receptor (unknown origin) expressed in 293 cells after 16 hrs by scintillation counting
# [2] = target: T3, Mineralocorticoid receptor
# Description: Antagonist activity at human mineralocorticoid receptor expressed in COS1 cells after 1 day by luciferase reporter gene assay
# [3] = Lipophilicity, log D of the compound at pH 7.4 by HPLC analysis; format: physicochemical; settings: buffer
# [4] = Metabolic stability in rat hepatic microsomes at 1 umol/L pre-incubated fro 5 mins at 37 degC before addition of NADPH-generating system by UV detection based HPLC method; format: ADME; settings: liver microsomes, read-out: CLH
# Rattus norvegicus [5] = assay: Toxicity in DOCA-salt hypertensive Wistar rat model assessed as change in heart rate at 100 mg/kg, po qd for 18 days measured 24 hrs post 7th and 14th last dose by tail-cuff method; format: organism-based; design: dose 100 mg/kg, route oral; settings: in vivo
# Rattus norvegicus [6] = assay: Toxicity in DOCA-salt hypertensive Wistar rat model assessed as change in seminal vesicle weight at 100 mg/kg, po qd for 18 days measured 24 hrs post 7th and 14th last dose […]; format: organism-based; design: dose 100 mg/kg, route oral; settings: in vivo
Structure (SMILES),pIC50 (Progesterone receptor),pIC50 (Androgen receptor),pIC50 [1],pIC50 (Glucocorticoid receptor),pIC50 [2],logD [3],microsomal CLint at 1 µM [4] [µL/min/mg],Activity (Rattus norvegicus [5]),Activity (Rattus norvegicus [6])
Cc1cc(C2=C(c3ccc(F)cc3)C(=O)NC2C)cc2c1OCC(=O)N2 (stereo unspecified),< 5.00,< 5.00,,,,,,,
Cc1[nH]nc(-c2ccc3c(c2)NC(=O)CO3)c1-c1ccc(F)cc1,5.80,< 5.00,5.43,< 5.00,,,,,
Cc1onc(-c2ccc3c(c2)NC(=O)CO3)c1-c1ccc(F)cc1,< 5.00,< 5.00,6.15,< 5.00,5.85,,,,
Cn1ncc(-c2ccc3c(c2)NC(=O)CO3)c1-c1ccc(F)cc1,< 5.00,< 5.00,6.54,< 5.00,6.77,,,,
Cc1nn(C)c(-c2ccc(F)cc2)c1-c1ccc2c(c1)NC(=O)CO2,5.01,< 5.00,6.96,5.49,6.80,2.51,,,
Cc1nn(C)c(-c2ccc(F)cc2F)c1-c1ccc2c(c1)NC(=O)CO2,5.03,< 5.00,6.72,5.64,6.22,,,,
Cc1cc(-c2c(C)nn(C)c2-c2ccc(F)cc2)cc2c1OCC(=O)N2,< 5.00,< 5.00,6.82,5.60,6.46,,,,
CCn1nc(C)c(-c2ccc3c(c2)NC(=O)CO3)c1-c1ccc(F)cc1,< 5.00,< 5.00,6.29,5.25,6.02,,,,
CCCn1nc(C)c(-c2ccc3c(c2)NC(=O)CO3)c1-c1ccc(F)cc1,5.24,< 5.00,7.09,5.80,6.74,,,,
Cc1nn(Cc2ccccc2)c(-c2ccc(F)cc2)c1-c1ccc2c(c1)NC(=O)CO2,5.70,5.25,7.00,6.20,7.19,,,,
Cc1nn(-c2ccccc2)c(-c2ccc(F)cc2)c1-c1ccc2c(c1)NC(=O)CO2,,,< 5.00,,,,,,
Cc1nn(CCCO)c(-c2ccc(F)cc2)c1-c1ccc2c(c1)NC(=O)CO2,< 5.00,< 5.00,6.36,< 5.00,6.17,1.99,,,
Cc1nn(CCCCO)c(-c2ccc(F)cc2)c1-c1ccc2c(c1)NC(=O)CO2,< 5.00,< 5.00,7.12,5.27,6.89,2.16,,,
Cc1nn(Cc2ccccn2)c(-c2ccc(F)cc2)c1-c1ccc2c(c1)NC(=O)CO2,< 5.00,< 5.00,5.55,< 5.00,6.00,2.45,,,
Cc1nn(Cc2cccnc2)c(-c2ccc(F)cc2)c1-c1ccc2c(c1)NC(=O)CO2,< 5.00,< 5.00,7.44,5.77,7.44,2.22,> 200,,
Cc1nn(Cc2ccncc2)c(-c2ccc(F)cc2)c1-c1ccc2c(c1)NC(=O)CO2,< 5.00,< 5.00,6.28,< 5.00,6.37,2.2,,,
CCCCn1nc(C)c(-c2ccc3c(c2)NC(=O)CO3)c1-c1ccc(F)cc1,5.40,5.44,7.66,5.85,7.35,,,,
Cc1nn(CC(C)C)c(-c2ccc(F)cc2)c1-c1ccc2c(c1)NC(=O)CO2,5.37,5.43,7.22,6.41,7.31,,,,
Cc1nn(CCCC(F)(F)F)c(-c2ccc(F)cc2)c1-c1ccc2c(c1)NC(=O)CO2,5.17,< 5.00,8.08,5.96,7.48,,,,
CC(=O)NCCn1nc(C)c(-c2ccc3c(c2)NC(=O)CO3)c1-c1ccc(F)cc1,,,< 5.00,,,,,,
Cc1nn(CCNS(C)(=O)=O)c(-c2ccc(F)cc2)c1-c1ccc2c(c1)NC(=O)CO2,< 5.00,< 5.00,6.60,< 5.00,5.70,1.7,,,
Cc1nn(CCC#N)c(-c2ccc(F)cc2)c1-c1ccc2c(c1)NC(=O)CO2,5.24,< 5.00,6.28,5.34,6.31,1.89,,,
Cc1nn(CC(F)(F)CCO)c(-c2ccc(F)cc2)c1-c1ccc2c(c1)NC(=O)CO2,< 5.00,< 5.00,7.42,5.89,6.27,2.11,,,
Cc1nn(CCC(C)(F)F)c(-c2ccc(F)cc2)c1-c1ccc2c(c1)NC(=O)CO2,5.40,5.04,8.00,6.43,7.74,,,,
Cc1nn(CCC(F)(F)CO)c(-c2ccc(F)cc2)c1-c1ccc2c(c1)NC(=O)CO2,< 5.00,< 5.00,7.02,5.60,6.74,2.34,,,
CC(=O)S[C@@H]1CC2=CC(=O)CC[C@]2(C)[C@H]2CC[C@@]3(C)[C@@H](CC[C@@]34CCC(=O)O4)[C@H]12 [SPIRONOLACTONE],,,,,,,,Non-toxic,Toxic
